Results reported in patent publication US11911442B2, “Use of soluble pro(renin) receptor to treat metabolic disorders and related conditions” (priority 2017, dated 2024).

What was measured:
C57BL6 mice = test: TO901317-induced diabetes insipidus in C57/BL6 mice; type: in vivo, mouse
Method: FIGS. 9A-9I show an initial characterization of diuretic and PRR-inhibitory actions of TO901317 in vivo and in vitro. […] The mice receiving vehicle treatment served as a control. At the end of experiment, 24-h urine collection was performed, followed by analysis of urinary sPRR excretion by ELISA and renal PRR expression by immunoblotting. (A) Urine output (n=30 mice per group). (B) Urinary osmolality (n=15 mice per group). (C) Immunoblotting analysis of renal PRR expression (n=15 mice per group). (D) Densitometric analysis of the immunoblot in C. (E) ELISA analysis of urinary sPRR (n=8 mice per group). (F-I) The effect of TO901317 on PRR expression in cultured CD cells. mpkCCD cells were exposed to vehicle or 10 μM TO901317 for 24 h. The cell lysates were subjected to immunoblotting analysis of PRR protein expression, and the medium was assayed for sPRR concentration by using ELISA and normalized by protein content. In a separate experiment, the cells were transfected with a PRR-luciferase construct, allowed to grown to confluence, and then were treated with vehicle or 10 μM TO901317 for 24 h. (F) Immunoblotting analysis of PRR (n=15 per group). (G) Densitometric analysis of the immunoblot in […]. (H) ELISA analysis of medium sPRR (n=10 per group). (I) The luciferase assay (n=5 per group).
(A) Urine output (n=8 mice per group). (B) Water intake (n=8 mice per group). (C) Water balance (n=8 mice per group). (D) Urinary osmolality (n=8 mice per group). (E) Het (n=8 mice per group).
AQP2 expression was analyzed by immunoblotting and immunostaining. Urinary renin activity was determined by measuring AngI generation, and urinary prorenin/renin concentration was determined by ELISA. (A) Immunoblotting analysis of AQP2 expression (n=15 mice per group). (B) Densitometric analysis of the immunoblots in A. (C) Urinary renin activity (n=8 mice per group). (D) Urinary prorenin/renin excretion (n=8 mice per group). (E) Schematic illustration of the mechanism by which the LXR agonist TO091317 (TO) suppresses PRR transcription and induces DI. LXRs bound to TO091317 function as a […] repressor for the PRR gene, leading to a reduced PRR/sPRR level that decreases AQP2 expression, ultimately causing DI.
Besides their well-recognized role in regulating lipid and glucose metabolism, LXRs are potential regulators of the RAS and fluid balance. […] In the initial experiment, the effects of the LXR agonist TO901317 on fluid homeostasis and on renal PRR and urinary renin levels were examined in mice. A 7-d treatment with TO901317 in C57BL6 mice reduced body weight (32.36±0.63 vs. 28.61±0.36 g, P<0.05) and food intake (4.08±0.19 vs. 3.54±0.15 g, P<0.05), although to a lesser extent. […] The expression of renal PRR protein and the excretion of urinary sPRR were examined by immunoblotting and ELISA, respectively.
In the subsequent experiment, a more detailed analysis of TO901317-induced DI was performed and the causal role of suppressed renal PRR was further examined in this phenomenon. This experiment comprised three groups: control, TO901317-treated, and TO901317+sPRRHis-treated mice. […] Of note, water balance was determined by subtracting urine volume from water intake. AQP2, a major water channel on the apical membrane of the CD, plays a key role in determining urine-concentrating capability. […] ELISA was also performed to determine the prorenin/renin concentration in the urine. Although urinary prorenin/renin excretion was suppressed by TO901317, it was unaffected by sPRRHis (FIG. 11D). […] FIG. 11E provides a schematic illustration of the mechanism by which TO901317 induces DI. Upon binding to TO901317, LXRs function as a transcriptional repressor to inactivate PRR transcription. The reduced PRR/sPRR levels down-regulate AQP2 expression, leading to DI.
Male 10- to 12-wk-old SD rats and C57BL6 mice were purchased from Charles River Laboratories and the Jackson Laboratory, respectively. All animals […] 50 mg kg body weight-1·d-1. […]

pGL3-PRR = test: PRR-luciferase (pGL3-PRR) reporter assay in mpkCCD cells; type: cell-based, murine; details: transfected mpkCCD cells, 10 μM, 24 h
Method: The effect of […] on PRR expression was tested in […] cells. These cells were grown to confluence in six-well plates. After 12-h serum deprivation, the cells were treated with vehicle or 10 μM TO901317 for 24 h and then were harvested for analysis of PRR expression and sPRR release. In a separate experiment, […] cells at 50% density were transiently transfected with a construct containing the luciferase gene under the control of the 2,016-bp 5' flanking region of the PRR gene. Upon confluence, the transfected cells were treated for 24 h with vehicle or 10 μM TO901317 and then were harvested for analysis of luciferase activity. Genomic DNA was extracted from rat tail using a Tissue DNA kit ([…]-01; Promega). A 2,016-bp fragment of the 5' flanking region of the PRR gene (GenBank accession no. NM_001007091; 1,941±75 bp) was amplified from the rat genomic DNA by PCR and subcloned to the pGL3-Basic reporter vector (Promega) using NheI and BgIII restriction sites; this construct was termed “pGL3-PRR.” A 2,084-bp fragment of the 5' flanking region of the AQP2 gene (GenBank accession no. […] Qiagen). […] The vehicle-treated group served as a control. The luciferase activities were measured using a luciferase assay system (Promega), and luminescence was detected by using an illuminometer (BMG FLUOstar OPTIMA).

PRR = PRR protein expression and sPRR release in mpkCCD cells; type: cell-based, murine; details: 10 μM, 24 h
Method: The effect of […] on PRR expression was tested in […] cells. These cells were grown to confluence in six-well plates. After 12-h serum deprivation, the cells were treated with vehicle or 10 μM TO901317 for 24 h and then were harvested for analysis of PRR expression and sPRR release. In a separate experiment, […] cells at 50% density were transiently transfected with a construct containing the luciferase gene under the control of the 2,016-bp 5' flanking region of the PRR gene. Upon confluence, the transfected cells were treated for 24 h with vehicle or 10 μM TO901317 and then were harvested for analysis of luciferase activity. Urinary or medium sPRR was determined using a commercially sPRR enzyme immunoassay (EIA) kit (catalog no. JP27782; Immuno-Biological Laboratories) according to the manufacturer's instructions. Renal tissues were lysed and subsequently sonicated. Protein concentrations were determined using Coomassie reagent. Forty micrograms of protein from each sample were denatured in boiling water, separated by SDS/PAGE, and transferred onto nitrocellulose membranes. Blots were blocked 1 h with 5% nonfat dry milk in Tris-buffered saline (TBS), followed by overnight incubation with primary antibody. […] The blots were quantitated by using Image-Pro Plus (Media Cybernetics). […]

With O=S(=O)(c1ccccc1)N(CC(F)(F)F)c1ccc(C(O)(C(F)(F)F)C(F)(F)F)cc1 [TO901317] the “urine output, water intake, water balance, urinary osmolality, Hct” value (C57BL6 mice; C57/BL6 mice, TO901317 alone, 7 d) was “polyuria, polydipsia, decreased water balance, hypoosmotic urine, and plasma volume contraction”, the urinary osmolality (C57BL6 mice; C57BL6 mice, 7-d treatment) was “hypoosmotic urine” and the urine output (C57BL6 mice; C57BL6 mice, 7-d treatment) was “severe polyuria”. For the same compound, the “urinary sPRR excretion” value (C57BL6 mice; C57BL6 mice, 7-d treatment, ELISA) was “suppressed consistently”, the “renal PRR expression” value (C57BL6 mice; C57BL6 mice, 7-d treatment, immunoblotting) was “suppressed consistently” and the food intake (C57BL6 mice; C57BL6 mice, 7-d treatment, control 4.08±0.19, P<0.05) was 3.54 ± 0.15 g. The body weight (C57BL6 mice; C57BL6 mice, 7-d treatment, control 32.36±0.63, P<0.05) was 28.61 ± 0.36 g, the “urinary renin activity (generation of AngI)” value (C57BL6 mice; TO901317 alone, 7 d) was “suppressed” and the urinary prorenin/renin excretion (C57BL6 mice; TO901317 alone, 7 d, ELISA) was “suppressed”. The “renal AQP2 expression” value (C57BL6 mice; TO901317 alone, 7 d, immunoblotting) was “significantly reduced”, the “suppression of luciferase activity (pGL3-PRR)” value (pGL3-PRR) was 76% and the “reduction of medium sPRR” value (PRR; ELISA) was 60%. The “reduction of PRR protein expression” value (PRR; immunoblotting) was 85%.
